Measured values reported in ChEMBL document CHEMBL1201862, “PubChem BioAssay data set” (2004).
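Five compound concentrations were applied to cells in 96-well plates for 48 hours; endpoints were derived by simple linear interpolation of the resulting dose-response curve. GI50 = concentration required for 50% inhibition of growth.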 Active and inactive are the calls of the source. No stated cut-off is given here; in the data, active = GI50 up to about 1.1 µM and inactive = higher.

Columns and labels:
Assay in all cases: DTP human tumour cell line panel, 48 h
[1] = system: UACC-257
[2] = system: Hs-578T
[3] = system: PC-3
[4] = system: LOX IMVI
[5] = system: SR
[6] = system: SF-268
[7] = system: M14
[8] = system: IGROV-1
[9] = system: OVCAR-8
[10] = system: SK-MEL-2
[11] = system: A498
[12] = system: CAKI-1
[13] = system: SNB-75
[14] = system: KM12
[15] = system: RPMI-8226
[16] = system: NCI/ADR-RES
[17] = system: A549
[18] = system: OVCAR-5
[19] = system: MDA-N
[20] = system: MOLT-4

Measured: GI50

CCOC(=O)C(C)c1nc2cc3cccnc3c(Cl)c2[nH]c1=O (stereo unspecified)
inactive: [1] > 100 µM | [2] 54.1 µM | [3] > 100 µM | [4] > 100 µM | [5] 73.6 µM | [6] 86.1 µM | [7] > 100 µM | [8] 52.6 µM | [9] > 100 µM | [10] 86.9 µM | [11] > 100 µM | [12] > 100 µM | [13] > 100 µM | [14] > 100 µM | [15] 25.9 µM | [16] > 100 µM

S=c1[nH]n2c(CCCCCCCCc3nnc4sc(=S)[nH]n34)nnc2s1
inactive: [1] > 100 µM | [17] > 100 µM | [18] > 100 µM | [3] > 100 µM | [5] > 100 µM | [6] > 100 µM | [19] > 100 µM | [7] > 100 µM | [8] > 100 µM | [20] > 100 µM | [9] > 100 µM | [10] > 100 µM | [11] > 100 µM | [12] > 100 µM | [13] > 100 µM | [14] > 100 µM | [15] > 100 µM | [16] > 100 µM

O=C(CSCC(=O)N/N=C/c1ccc(F)cc1)N/N=C/c1ccc(F)cc1
inactive: [1] > 100 µM | [2] > 100 µM | [17] 54.8 µM | [18] > 100 µM | [3] 66.2 µM | [5] > 100 µM | [6] > 100 µM | [7] 76.6 µM | [8] > 100 µM | [20] 25.2 µM | [9] > 100 µM | [10] > 100 µM | [11] 38.2 µM | [13] > 100 µM | [14] > 100 µM | [15] 60.8 µM | [16] > 100 µM

COc1nc2c(c(=O)[nH]1)N=C(c1ccc([N+](=O)[O-])cc1)CC(c1ccccc1)N2 (stereo unspecified)
inactive: [1] > 100 µM | [17] 83.4 µM | [18] > 100 µM | [3] 84.3 µM | [4] 38.4 µM | [5] 99.1 µM | [19] > 100 µM | [7] > 100 µM | [8] > 100 µM | [20] 54.3 µM | [9] > 100 µM | [10] > 100 µM | [11] > 100 µM | [12] > 100 µM | [13] 32.8 µM | [14] 70.5 µM | [15] 44.1 µM | [16] > 100 µM

Cc1nc(N)sc1/N=N/c1ccccc1Br
inactive: [1] 32.9 µM | [17] > 53.7 µM | [18] 41.6 µM | [3] 33.3 µM | [4] > 48.9 µM | [5] 35.2 µM | [6] 17.2 µM | [19] 27.9 µM | [7] 37.7 µM | [8] 24.1 µM | [20] > 52.2 µM | [9] > 54.3 µM | [10] 34 µM | [11] 14.2 µM | [12] 43.5 µM | [13] 10.3 µM | [14] 33.5 µM | [15] 65.3 µM | [16] 39.4 µM

C/C(=N\NC(=O)c1ccncc1)c1cccc(F)c1
inactive: [17] > 10 µM | [18] > 10 µM | [3] > 10 µM | [4] > 10 µM | [5] > 10 µM | [6] > 10 µM | [19] > 10 µM | [7] > 10 µM | [8] > 10 µM | [20] > 10 µM | [9] > 10 µM | [10] > 10 µM | [11] > 10 µM | [12] > 10 µM | [13] > 10 µM | [14] > 10 µM | [15] > 10 µM | [16] > 10 µM
